Reference: PMC9000482, “Inhibition of Aldose Reductase by Ginsenoside Derivatives via a Specific Structure Activity Relationship with Kinetics Mechanism and Molecular Docking Study” (Molecules, 2022)
Read-outs that look alike come from different tables or passages of the source. Marks after values point to notes of the source that are not given here.

Assays:
[1] = target: T1, human recombinant aldose reductase (HRAR) (Homo sapiens, UniProt P15121); experiment: HRAR inhibition assay (DL-glyceraldehyde substrate); format: biochemical; details: for HRAR inhibitory activity (in words): at the concentrations tested
T1 construct: purchased Wako Chemicals (Osaka, Japan)
Description: HRAR inhibition was studied according to Nishimura et al.. AR action was studied by measuring the reduction in NADPH absorption at 340 nm over a period of 1 min on a UV/visible spectrophotometer (Ultrospec®2100pro, Biochrom, Holliston, MA, USA). For HRAR inhibition, the HRAR enzyme (0.4 units), was used in all enzyme inhibition evaluations. […] The inhibition percentage (%) was measured as designated in the RLAR assay. The DA sample/min value characterizes the decrease in absorbance for 1 min with the test samples and substrate. The ability of each sample to inhibit HRAR was observed as an IC50 value (µM) and measured from the log-dose inhibition curve.

[2] = target: T2, rat lens aldose reductase (RLAR) (Rattus norvegicus, UniProt P07943); experiment: RLAR inhibitory activity assay (rat lens homogenate, DL-glyceraldehyde substrate); format: biochemical
T2 construct: from tissue; host or cells: lens of Sprague-Dawley rats (supernatant of homogenate)
Description: A rat lens homogenate was prepared with minor modifications according to the method reported by Hayman et al.. Briefly, the lenses were removed from the eyes of Sprague-Dawley rats weighing 250–280 g. They were homogenized in sodium phosphate buffer (pH 6.2) that was prepared with dibasic sodium phosphate (Na2HPO4∙H2O, 0.66 g) and monobasic sodium phosphate (NaH2PO4∙H2O, 1.27 g) in 100 mL of double-distilled H2O. The homogenate was clarified by centrifugation at 10,000 rpm at 4 °C for 20 min and the resultant supernatant was frozen until use. A crude AR homogenate with a specific activity of 6.5 U/mg was used in all enzyme inhibition evaluations. The reaction solution consisted of 620 µL of 100 mM sodium phosphate buffer (pH 6.2), 90 µL of AR homogenate, 90 µL of 1.6 mM NADPH, and 9 µL of sample, while the substrate included 90 µL of 50 mM DL-glyceraldehyde. […] AR activity was determined by measuring the decrease in NADPH absorption at 340 nm over a 4 min period on an Ultrospec®2100pro UV/Visible spectrophotometer. SWIFT II Applications software (Amersham Biosciences, NJ, USA) was used for all data analyses. The inhibition percentage (%) was calculated as follows in Equation (1):[1 − (∆Asample/min − ∆Ablank/min)/(∆Acontrol/min − ∆Ablank/min)] × 100(1) in which ∆Asample/min represents the test sample and substrate’s reduction in absorbance over 4 min, and ∆A control/min represents the same reduction in absorbance, but with 100% DMSO (dimethyl sulfoxide) rather than the test sample.

[3] = test system: sorbitol accumulation in rat lens; experiment: Lens culture and intracellular sorbitol measurement (ex vivo); format: cell-based, Sprague-Dawley rats; details: 25 mM glucose, 6 days, sample 5 μg/mL, mean ± SD (n = 3); for inhibition at 5 µg/mL: 144 h
[4] = target: T1, human recombinant aldose reductase (HRAR); experiment: Enzyme kinetics of HRAR inhibition (Lineweaver-Burk and Dixon plots); format: biochemical; details: for HRAR Mode of Inhibition: Lineweaver-Burk plot
Description: (§1) Enzyme inhibition with different concentrations ([…]) was assessed by monitoring the effects of different concentrations of the substrate. The following concentrations of test ginsenosides were used in the RLAR kinetics analysis: 0, 2, 10, and 50 µM for protopanaxadiol; 0, 0.5, 2.5, and 10 µM for (20S) ginsenoside Rg3; 0, 0.5, 2.5, and 10 µM for (20R) ginsenoside Rg3; 0, 0.1, 0.5, and 2.5 µM for ginsenoside Rh2; 0, 2, 10, and 50 µM for protopanaxatriol; 0, 0.8, 4, and 20 µM for ginsenoside Rf; 0, 0.8, 4, and 20 µM for (20S) ginsenoside Rg2, and 0, 0.5, 2.5, and 10 µM for ginsenoside Rh1. Using Lineweaver-Burk double reciprocal plots, the inhibition type was determined using various concentrations of DL-glyceraldehyde (5, 10, and 20 mM) for HRAR as a substrate in the presence of different concentrations of the active test ginsenosides. The concentrations of test ginsenosides in the HRAR kinetics analysis were as follows: 0, 0.1, 0.5, and 2.5 µM for protopanaxadiol; 0, 0.5, 2, and 10 µM for (20S) ginsenoside Rg3; 0, 1, 5, and 20 µM for (20R) ginsenoside Rg3; 0, 0.5, 2.5, and 10 µM for ginsenoside Rh2; 0, 0.1, 0.5, and 2.5 µM for compound K; 0, 1, 5, and 10 µM for protopanaxatriol; 0, 0.5, 4, and 20 µM for (20R) ginsenoside Rg2, and 0, 0.2, 2, and 5 µM for ginsenoside Rh1. The Dixon plot is a graphical method [1/enzyme velocity (1/V)] against inhibitor concentration [I] used to determine the type of enzyme inhibition; it was used to identify the dissociation or inhibition constant (Ki) for the enzyme-inhibitor complex. Dixon plots (single reciprocal plots) for RLAR and HRAR inhibition were obtained in the presence of 100, 50, and 10 mM RLAR, and 20, 10, and 5 mM HRAR DL-glyceraldehyde substrate. Thus, the type of enzyme inhibition was determined by interpreting the Lineweaver-Burk plots, and the inhibition constants (Ki) were determined by interpreting the Dixon plots.

[5] = target: T2, rat lens aldose reductase (RLAR); experiment: Enzyme kinetics of RLAR inhibition (Lineweaver-Burk and Dixon plots); format: biochemical; details: for RLAR Mode of Inhibition: Lineweaver-Burk plot
Description: as §1

[6] = substrate DL-glyceraldehyde, mean ± S.E.M. of triplicate experiments, read-out: HRAR IC50
[7] = rat lens homogenate, substrate DL-glyceraldehyde, mean ± S.E.M. of triplicate experiments, read-out: RLAR IC50
[8] = Dixon plots, single inhibition constant, read-out: HRAR Ki
[9] = Dixon plots, read-out: RLAR Kic (binding constant of inhibitor with free enzyme)

Row | Compound | IC50 [1, 6] | IC50 [2, 7] | Sorbitol Content (mg)/Lens Wet Weight (g) [3] | HRAR Mode of Inhibition [4] | inhibition at 5 µg/mL ([3]; Rattus norvegicus) | RLAR Mode of Inhibition [5] | further results
1 | CC(C)=CCCC(C)(O)C1CCC2(C)C1C(O)CC1C3(C)CCC(O)C(C)(C)C3C(OC3OC(CO)C(O)C(O)C3OC3OC(C)C(O)C(O)C3O)CC12C [(20R) ginsenoside Rg2] | 13.7 ± 0.99 µM | 29.4 ± 2.33 µM | 0.83 ± 0.01 ^c mg/g | Non-competitive | – | – | Inhibition (%) of sorbitol accumulation in rat lens [3]: 51.74 ± 2.99 ^c %; Ki [4, 8]: 11.7 µM
2 | CC(C)=CCCC(C)(O)C1CCC2(C)C1C(O)CC1C3(C)CCC(OC4OC(CO)C(O)C(O)C4OC4OC(CO)C(O)C(O)C4O)C(C)(C)C3CCC12C [(20R) ginsenoside Rg3] | – | – | 0.89 ± 0.01 ^c mg/g | Mixed type | 48.2 ± 3.99% | Competitive type | IC50 ([1]; read-out: HRAR IC50, substrate DL-glyceraldehyde, mean ± S.E.M. of triplicate experiments): 8.67 ± 0.87 µM; IC50 ([2]; read-out: RLAR IC50, rat lens homogenate, substrate DL-glyceraldehyde, mean ± S.E.M. of triplicate experiments): 4.28 ± 0.31 µM; RLAR Mode of Inhibition ([5]; listed as (20R) Rg3): competitive; Ki ([5]; read-out: RLAR Ki, Dixon plots, single inhibition constant): 3.69 µM; HRAR Kiu (binding constant of inhibitor with enzyme-substrate complex) ([4]; Dixon plots): 17.99 µM; Ki ([4]; read-out: HRAR Kic (binding constant of inhibitor with free enzyme), Dixon plots): 11.1 µM
3 | CC(C)=CCCC(C)(O)C1CCC2(C)C1C(O)CC1C3(C)CCC(O)C(C)(C)C3C(OC3OC(CO)C(O)C(O)C3OC3OC(C)C(O)C(O)C3O)CC12C [(20S) ginsenoside Rg2] | 15.7 ± 1.05 µM | 14.4 ± 0.99 µM | 0.73 ± 0.01 ^c mg/g | – | 57.5 ± 5.11% | Mixed type | RLAR Kiu (binding constant of inhibitor with enzyme-substrate complex) ([5]; Dixon plots): 17.04 µM; Ki [5, 9]: 10.8 µM
4 | CC(C)=CCC[C@](C)(O)C1CC[C@]2(C)[C@@H]1[C@H](O)CC1[C@@]3(C)CC[C@H](O[C@@H]4O[C@H](CO)[C@@H](O)[C@H](O)[C@H]4O[C@@H]4O[C@H](CO)[C@@H](O)[C@H](O)[C@H]4O)C(C)(C)C3CC[C@]12C (stereo partly drawn) [(20S) ginsenoside Rg3] | – | – | 0.37 ± 0.01 ^b mg/g | Competitive type | 78.5 ± 4.27% | Competitive type | IC50 [1]: 9.92 ± 0.56 µM; IC50 [2]: 1.25 ± 0.28 µM; Ki [5]: 1.97 µM; RLAR Mode of Inhibition ([5]; listed as (20S) Rg3): competitive; Ki [4]: 8.06 µM
5 | CC(C)=CCC[C@](C)(O[C@@H]1O[C@H](CO)[C@@H](O)[C@H](O)[C@H]1O)C1CC[C@]2(C)[C@@H]1[C@H](O)CC1[C@@]3(C)CC[C@H](O)C(C)(C)C3CC[C@]12C (some centres unmarked) [Compound K] | 2.23 ± 0.54 µM | 41.5 ± 3.99 µM | 0.46 ± 0.01 ^b mg/g | Competitive type | 73.2 ± 8.11% | – | Ki [4, 8]: 1.59 µM; HRAR Mode of Inhibition ([4]; listed as compound K): competitive
6 | CC(C)=CCC[C@](C)(O)[C@H]1CC[C@]2(C)[C@@H]1[C@H](O)C[C@@H]1[C@@]3(C)CC[C@H](O)C(C)(C)[C@@H]3[C@@H](O[C@@H]3O[C@H](CO)[C@@H](O)[C@H](O)[C@H]3O[C@@H]3O[C@H](CO)[C@@H](O)[C@H](O)[C@H]3O)C[C@]12C [Ginsenoside Rf] | 19.5 ± 1.55 µM | 11.3 ± 1.49 µM | 0.28 ± 0.01 ^a mg/g | – | 83.7 ± 4.88% | Mixed type | RLAR Kiu (binding constant of inhibitor with enzyme-substrate complex) ([5]; Dixon plots): 18.60 µM; Ki [5, 9]: 11.2 µM
7 | CC(C)=CCC[C@](C)(O[C@@H]1O[C@H](CO)[C@@H](O)[C@H](O)[C@H]1O)[C@H]1CC[C@]2(C)[C@@H]1[C@H](O)C[C@@H]1[C@@]3(C)CC[C@H](O)C(C)(C)[C@@H]3[C@@H](O[C@@H]3O[C@H](CO)[C@@H](O)[C@H](O)[C@H]3O)C[C@]12C [Ginsenoside Rg1] | 27.6 ± 2.12 µM | 49.5 ± 1.88 µM | – | – | – | – | –
8 | CC(C)=CC/C=C(\C)[C@H]1CC[C@]2(C)[C@@H]1[C@H](O)C[C@@H]1[C@@]3(C)CC[C@H](O[C@@H]4O[C@H](CO)[C@@H](O)[C@H](O)[C@H]4O[C@@H]4O[C@H](CO)[C@@H](O)[C@H](O)[C@H]4O)C(C)(C)[C@@H]3CC[C@]12C [Ginsenoside Rg5] | – | – | – | – | – | – | IC50 [1]: 38.6 ± 2.91 µM; IC50 [2]: 54.5 ± 1.22 µM
9 | CC(C)=CCC[C@](C)(O)[C@H]1CC[C@]2(C)[C@@H]1[C@H](O)C[C@@H]1[C@@]3(C)CC[C@H](O)C(C)(C)[C@@H]3[C@@H](O[C@@H]3O[C@H](CO)[C@@H](O)[C@H](O)[C@H]3O)C[C@]12C [Ginsenoside Rh1] | – | – | 0.10 ± 0.01 ^a mg/g | Mixed type | – | Competitive type | IC50 [1]: 4.66 ± 0.34 µM; IC50 [2]: 7.28 ± 0.27 µM; inhibition at 5 µg/mL [3]: 94.2 ± 4.71%; Ki [5]: 5.39 µM; RLAR Mode of Inhibition ([5]; listed as Rh1): competitive; Ki [4]: 3.4 µM; HRAR Kiu (binding constant of inhibitor with enzyme-substrate complex) ([4]; Dixon plots): 8.31 µM
10 | CC(=O)OC[C@H]1O[C@@H](O[C@H]2[C@H](O[C@H]3CC[C@@]4(C)C(CC[C@]5(C)C4C[C@@H](O)[C@@H]4C([C@](C)(CCC=C(C)C)O[C@@H]6O[C@H](CO[C@@H]7OC[C@H](O)[C@H](O)[C@H]7O)[C@@H](O)[C@H](O)[C@H]6O)CC[C@]45C)C3(C)C)O[C@H](CO)[C@@H](O)[C@@H]2O)[C@H](O)[C@@H](O)[C@@H]1O (some centres unmarked) [Ginsenoside Rs1] | > 100 µM | 143 ± 3.77 µM | – | – | – | – | HRAR inhibitory activity (in words) [1]: inactive
11 | CC(=O)OC[C@H]1O[C@@H](O[C@H]2[C@H](O[C@H]3CC[C@@]4(C)C(CC[C@]5(C)C4C[C@@H](O)[C@@H]4C([C@](C)(CCC=C(C)C)O[C@@H]6O[C@H](CO[C@@H]7O[C@@H](CO)[C@H](O)[C@H]7O)[C@@H](O)[C@H](O)[C@H]6O)CC[C@]45C)C3(C)C)O[C@H](CO)[C@@H](O)[C@@H]2O)[C@H](O)[C@@H](O)[C@@H]1O (some centres unmarked) [Ginsenoside Rs2] | > 100 µM | 149 ± 4.22 µM | – | – | – | – | HRAR inhibitory activity (in words) [1]: inactive
12 | O=c1c(O)c(-c2ccc(O)c(O)c2)oc2cc(O)cc(O)c12 [Quercetin, reference compound] | – | – | 0.22 ± 0.01 ^a mg/g | – | 87.2 ± 3.91% | – | –
